In patent US9234025B2, “Extracellular allosteric inhibitor binding domain from a tyrosine kinase receptor” (SANOFI, priority 2009, dated 2016):

Experiments:
[1] = target: T1, FGFR1-ECD (FGFR1^∂123/Fc) (Homo sapiens, UniProt P11362); assay: scintillation proximity binding assay (SPA), 125I-FGF2 to FGFR1-ECD/Fc
T1 construct: FGFR1-ECD, consisting of the three Ig-like domains D1-3, coupled to a Fc-fragment (FGFR1^∂123/Fc)
Description: The objective of this study was to develop low molecular weight chemical compounds that bind to the FGFR extracellular domain (ECD) and inhibit FGFR signaling. Given that it is challenging to envisage how a small compound could interact with a much larger polypeptide (i.e. FGF) via simple steric hindrance for the orthosteric site, multiple ligand binding assay formats were utilized to determine whether any identified compounds were acting orthosterically of via an allosteric mechanism. We initially developed a high-throughput scintillation proximity binding assay (SPA) to identify compounds that inhibit the binding of ^125I-FGF2 to FGFR1-ECD, consisting of the three Ig-like domains D1-3, coupled to a Fc-fragment (FGFR1^∂123/Fc).

HUVEC = assay: cell migration with various growth factors (modified Boyden chamber); type: cell-based, human; settings: SSR 1 μM
Method: Cell migration was assessed by a modified Boyden chamber assay, by using 24-well inserts containing 8 μm pore size transwell permeable supports with a polycarbonate membrane (Costar, Corning Inc.). Exponentially growing cells were starved in 0.2% FBS containing medium for 16 hours and resuspended at 5×10^5 cells/ml in the same low serum medium. 100 μl of the cell suspension were seeded in the upper chamber, while chemoattractants and/or SSR were placed in the lower chamber. Chemoattractants tested include: human PDGF-BB, IGF-I, PIGF, EGF, all at 100 ng/ml, in the presence or absence of SSR (1 μM). 10% FBS containing medium was used a positive control. After 6 hours incubation at 37° C., cells on the upper side of the membrane were scraped using a cotton swab, while migrated cells on the lower surface were fixed with 1% paraformaldehyde in PBS and nuclei stained with DAPI for quantification using a fluorescent microsope. Quanitifcation is performed by making 5 random images at a magnification of 10× and by counting the number of nuclei.

B9-FGFR3WT cell line = assay: B9 myeloma cell proliferation, FGFR3WT; type: cell-based; settings: 0.1 μM SSR; FGF1 25 ng/ml
Method: Cell proliferation was analysed on exponentially growing cells that were starved for 16 hours in IMDM (Invitrogen, 31980048), 0.2% FBS, 2 mM glutamine containing medium and seeded at 4,000 cells/well in 96-well microplates. After exposure to mitogens and/or SSR for 72 hours, cell proliferation was assessed with the use of the CellTiter 96 AQueous One Solution Cell Proliferation Assay (Promega, Madison, Wis., USA) according to manufacturer's instructions.
For studying SSR effect on FGFR3, the proliferation of B9-myeloma cells, expressing either FGFR3WT or FGFR3TD (a constitutively activated FGFR3 variant induced by the K650E mutation, even in the absence of any ligand; Truedel et al; blood 2006), was assayed by stimulation with FGF1 (25 ng/ml).

PANC02 cells = assay: PANC02 migration; type: cell-based; settings: 100 nM SSR; 100 ng/ml FGF7 with or without VEGF; FGFR2-IIIb
Method: Cell proliferation was analysed on exponentially growing cells that were starved for 16 hours in 100 μl RPMI 1640 (Invitrogen, 32404-014) with 0.2% FBS (Hyclone, SH30070.03), 2 mM glutamine, MEM non-essential amino-acid 1× (Gibco, 11140-035), MEM sodium pyruvate 1× (Gibco, 11360-039) and seeded at 4,000 cells/well in 96-well microplates. After exposure to mitogens and/or SSR for 72 hours, cell proliferation was assessed with the use of the CellTiter 96 AQueous One Solution Cell Proliferation Assay (Promega, Madison, Wis., USA) according to manufacturer's instructions. Cell migration was assessed by a modified Boyden chamber assay, by using 24-well inserts containing 8 μm pore size transwell permeable supports with a polycarbonate membrane (Costar, Corning Inc.). Exponentially growing cells were starved in 0.2% FBS containing medium for 16 hours and resuspended at 5×10^5 cells/ml in the same low serum medium. 100 μl of the cell suspension were seeded in the upper chamber, while chemoattractants and/or SSR were placed in the lower chamber. 10% FBS containing medium was used a positive control. After 6 hours incubation at 37° C., cells on the upper side of the membrane were scraped using a cotton swab, while migrated cells on the lower surface were fixed with 4% formaldehyde and nuclei stained with DAPI for quantification.

T1 sequence (P11362 22-376 limits assumed): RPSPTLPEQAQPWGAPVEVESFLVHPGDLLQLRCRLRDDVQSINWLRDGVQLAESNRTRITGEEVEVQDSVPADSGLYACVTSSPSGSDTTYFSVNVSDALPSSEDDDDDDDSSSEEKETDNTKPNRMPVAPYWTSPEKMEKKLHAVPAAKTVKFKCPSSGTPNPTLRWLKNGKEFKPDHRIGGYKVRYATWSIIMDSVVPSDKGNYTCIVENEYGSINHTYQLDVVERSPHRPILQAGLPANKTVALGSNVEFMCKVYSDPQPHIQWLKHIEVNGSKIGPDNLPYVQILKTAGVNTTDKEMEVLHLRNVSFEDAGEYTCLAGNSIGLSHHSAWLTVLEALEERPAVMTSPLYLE

SMILES: COc1c(C)c(C(=O)c2ccc(N)c(C(=O)[O-])c2)n2ccccc12.[Na+] [SSR]
- inhibition of ^125I-FGF2 binding to FGFR1-ECD [1]: inhibited ^125I-FGF2 binding
- cellular response (migration) induced by EGF (HUVEC; EGF 100 ng/ml): did not affect
- cellular response (migration) induced by IGF (HUVEC; IGF-I 100 ng/ml): did not affect
- cellular response (migration) induced by PDGF-BB (HUVEC; PDGF-BB 100 ng/ml): did not affect
- cellular response (migration) induced by PIGF (HUVEC; PIGF 100 ng/ml): did not affect
- FGF1-induced proliferation of B9-FGFR3WT cells (B9-FGFR3WT cell line): inhibited
- FGF7-induced PANC02 migration (PANC02 cells): blocked
